# Reference: patent US20020137929A1, “1 - (3-heterocyclylphenyl) isothiourea, -isourea, -guanidine and -amidine herbicidal agents” (Intellectual Property Department, BASF Aktiengesellschaft, priority 1998, published 2002)
# Columns and labels:
# [1] = test system: SETVI (Foxtail, Green); test: Postemergence herbicidal evaluation; assay type: in vivo, Setaria viridis; conditions: postemergence
# Procedure, shortened: (§1)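 Seedlings grown about two weeks were sprayed at 40 psi with compound dispersed in 50/50 acetone/water plus 0.5% TWEEN 20, at about 0.0156 to 0.500 kg/ha. Plants were kept in the greenhouse and scored 4–5 weeks later on a 0–9 visual scale against untreated controls.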
# [2] = test system: TRZAWR (Wheat, Winter, cv Riband); test: Preemergence herbicidal evaluation; assay type: in vivo, Triticum aestivum; conditions: rated 4-5 weeks after treatment, rating scale 0-9
# Procedure, shortened: (§2)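 Scores (0–9) reflect visual comparison with control plants for stand, vigor, malformation, size and chlorosis. Compound was applied to the soil after sowing, before emergence, as an aqueous acetone spray (about 0.0156–0.500 kg/ha), and cups were kept in a greenhouse for 4–5 weeks.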
# [3] = test system: MOOVA (Monochoria); test: Preemergence weed control under flooded paddy conditions; assay type: in vivo, Monochoria vaginalis; conditions: rated 3-4 weeks after treatment
# Procedure, shortened: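 Ratings on a 0-9 visual scale cover stand, vigor, malformation, size, chlorosis and overall appearance relative to a control, taken three to four weeks post-treatment. Application was into flood water over freshly sown silt loam at roughly 0.0313 to 0.500 kg/ha.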
# [4] = test system: IPOHE (Morningglory, Ivyleaf); test: Preemergence herbicidal evaluation; assay type: in vivo, Ipomoea hederacea; conditions: rated 4-5 weeks after treatment, rating scale 0-9
# Procedure, shortened: as §2
# [5] = test system: ORYSAT (Rice, Tebonnet); test: Postemergence herbicidal evaluation; assay type: in vivo, Oryza sativa, (L.) Tebonnet; conditions: postemergence
# Procedure, shortened: as §1
# [6] = test system: ZEAMX (Corn, Field); test: Preemergence herbicidal evaluation; assay type: in vivo, Zea mays; conditions: rated 4-5 weeks after treatment, rating scale 0-9
# Procedure, shortened: as §2
# [7] = test system: CYPIR (Rice Flatsedge); test: Preemergence weed control under flooded paddy conditions; assay type: in vivo, Cyperus iria; conditions: rated 3-4 weeks after treatment
# Procedure, shortened: (§3)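 Flooded-pot preemergence screen with silt loam and seeds in the upper 0.5 cm. Dose about 0.0313 to 0.500 kg/ha, delivered into flood water; visual 0-9 score after 3 to 4 weeks.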
# [8] = test system: ECHCG (Barnyardgrass); test: Postemergence herbicidal evaluation; assay type: in vivo, Echinochloa crus-galli; conditions: postemergence
# Procedure, shortened: as §1
# [9] = test system: ECHORC (Watergrass (Calif.)); test: Preemergence weed control under flooded paddy conditions; assay type: in vivo, Echinochloa oryzoides; conditions: rated 3-4 weeks after treatment
# Procedure, shortened: as §3
# [10] = test system: ABUTH (Velvetleaf); test: Postemergence herbicidal evaluation; assay type: in vivo, Abutilon theophrasti; conditions: postemergence
# Procedure, shortened: as §1
# [11] = test system: GALAP (Galium); test: Postemergence herbicidal evaluation; assay type: in vivo, Galium aparine; conditions: postemergence
# Procedure, shortened: as §1
structure (smiles),measurement,setting,value
C=C1SC(=Nc2cc(-n3c(=O)cc(C(F)(F)F)n(C)c3=O)c(F)cc2Cl)N(CC(=O)OCC)C1=O [Compound 154],Herbicidal rating SETVI,[1]; rate 0.0156 kg/ha,0.0
same,Herbicidal rating SETVI,[1]; rate 0.0313 kg/ha,0.0
same,Herbicidal rating SETVI,[1]; rate 0.0625 kg/ha,5.0
same,Preemergence herbicidal rating TRZAWR,[2]; rate 0.0156 kg/ha,0.0
same,Preemergence herbicidal rating TRZAWR,[2]; rate 0.0313 kg/ha,2.0
same,Preemergence herbicidal rating TRZAWR,[2]; rate 0.0625 kg/ha,8.0
same,Preemergence herbicidal rating TRZAWR,[2]; rate 0.1250 kg/ha,8.0
same,Preemergence herbicidal rating TRZAWR,[2]; rate 0.2500 kg/ha,9.0
same,"herbicidal effect rating, MOOVA",[3]; 0.0313 kg/ha,6.0
same,"herbicidal effect rating, MOOVA",[3]; 0.0625 kg/ha,7.0
same,"herbicidal effect rating, MOOVA",[3]; 0.1250 kg/ha,8.0
same,"herbicidal effect rating, MOOVA",[3]; 0.2500 kg/ha,9.0
same,Preemergence herbicidal rating IPOHE,[4]; rate 0.0156 kg/ha,0.0
same,Preemergence herbicidal rating IPOHE,[4]; rate 0.0313 kg/ha,9.0
same,Preemergence herbicidal rating IPOHE,[4]; rate 0.0625 kg/ha,9.0
same,Preemergence herbicidal rating IPOHE,[4]; rate 0.1250 kg/ha,9.0
same,Preemergence herbicidal rating IPOHE,[4]; rate 0.2500 kg/ha,9.0
same,Herbicidal rating ORYSAT,[5]; rate 0.0156 kg/ha,0.5
same,Herbicidal rating ORYSAT,[5]; rate 0.0313 kg/ha,1.5
same,Herbicidal rating ORYSAT,[5]; rate 0.0625 kg/ha,2.0
same,Preemergence herbicidal rating ZEAMX,[6]; rate 0.0156 kg/ha,5.0
same,Preemergence herbicidal rating ZEAMX,[6]; rate 0.0313 kg/ha,7.0
same,Preemergence herbicidal rating ZEAMX,[6]; rate 0.0625 kg/ha,8.0
same,Preemergence herbicidal rating ZEAMX,[6]; rate 0.1250 kg/ha,9.0
same,Preemergence herbicidal rating ZEAMX,[6]; rate 0.2500 kg/ha,9.0
same,"herbicidal effect rating, CYPIR",[7]; 0.0313 kg/ha,2.0
same,"herbicidal effect rating, CYPIR",[7]; 0.0625 kg/ha,3.0
same,"herbicidal effect rating, CYPIR",[7]; 0.1250 kg/ha,4.0
same,"herbicidal effect rating, CYPIR",[7]; 0.2500 kg/ha,6.0
same,Herbicidal rating ECHCG,[8]; rate 0.0156 kg/ha,0.0
same,Herbicidal rating ECHCG,[8]; rate 0.0313 kg/ha,0.0
same,Herbicidal rating ECHCG,[8]; rate 0.0625 kg/ha,0.0
same,"herbicidal effect rating, ECHORC",[9]; 0.0313 kg/ha,3.0
same,"herbicidal effect rating, ECHORC",[9]; 0.0625 kg/ha,4.0
same,"herbicidal effect rating, ECHORC",[9]; 0.1250 kg/ha,7.0
same,"herbicidal effect rating, ECHORC",[9]; 0.2500 kg/ha,7.0
same,Herbicidal rating ABUTH,[10]; rate 0.0156 kg/ha,9.0
same,Herbicidal rating ABUTH,[10]; rate 0.0313 kg/ha,9.0
same,Herbicidal rating ABUTH,[10]; rate 0.0625 kg/ha,9.0
same,Herbicidal rating GALAP,[11]; rate 0.0156 kg/ha,3.0
same,Herbicidal rating GALAP,[11]; rate 0.0313 kg/ha,3.0
same,Herbicidal rating GALAP,[11]; rate 0.0625 kg/ha,4.0
